PubChem BioAssay AID256 (DTP/NCI, 2004)
Values joined by “and” are separate entries in the source; they are usually repeats but may differ in a detail not shown here. Equal values may be shown once. Inconclusive results and toxic doses are left out. The calls were made as follows: active = survival T/C of 150% or more; inactive = T/C below 125% in these data.

Tested on: CD2F1 mice, L1210 leukemia ip, survival T/C
Experiment: NCI In Vivo Anticancer Drug Screen. Data for tumor model L1210 Leukemia (intraperitoneal) in CD2F1 (CDF1) mice
Settings: higher = longer survival
How it was run: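 Ratio T/C, where T is the treated-group value and C the vehicle-dosed control value, from mice implanted with a transplantable tumor.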

[1] = endpoint: mean survival time, dose: 100.0 mg/kg/injection, schedule: Q01DX001 (ip), vehicle: saline with Tween-80
[2] = endpoint: mean survival time, dose: 200.0 mg/kg/injection, schedule: Q01DX001 (ip), vehicle: saline with Tween-80
[3] = endpoint: mean survival time, dose: 400.0 mg/kg/injection, schedule: Q01DX001 (ip), vehicle: saline with Tween-80
[4] = endpoint: mean survival time, dose: 100.0 mg/kg/injection, schedule: Q01DX009 (ip), vehicle: saline with Tween-80
[5] = endpoint: mean survival time, dose: 200.0 mg/kg/injection, schedule: Q01DX009 (ip), vehicle: saline with Tween-80
[6] = endpoint: mean survival time, dose: 400.0 mg/kg/injection, schedule: Q01DX009 (ip), vehicle: saline with Tween-80
[7] = endpoint: mean survival time, dose: 100.0 mg/kg/injection, schedule: Q04DX003 (ip), vehicle: saline with Tween-80
[8] = endpoint: mean survival time, dose: 200.0 mg/kg/injection, schedule: Q04DX003 (ip), vehicle: saline with Tween-80
[9] = endpoint: mean survival time, dose: 400.0 mg/kg/injection, schedule: Q04DX003 (ip), vehicle: saline with Tween-80

Measured: T/C

CC(c1ccccc1)n1cncc1C(=O)O (stereo not drawn)
inactive: [1] 106 % of control | [2] 97 % of control | [3] 95 % of control

c1ccc(C2=NN(c3ccccc3)CN(c3ccccc3)N2)cc1
inactive: [4] 106 % of control | [5] 97 % of control | [6] 96 % of control

O=C(NCCNC(=O)c1ccccc1)c1ccccc1
inactive: endpoint: mean survival time, dose: 6.25 mg/kg/injection, schedule: Q04DX002 (ip), vehicle: saline with Tween-80 97 % of control | endpoint: mean survival time, dose: 12.5 mg/kg/injection, schedule: Q04DX002 (ip), vehicle: saline with Tween-80 93 % of control | endpoint: mean survival time, dose: 25.0 mg/kg/injection, schedule: Q04DX002 (ip), vehicle: saline with Tween-80 93 % of control | endpoint: mean survival time, dose: 50.0 mg/kg/injection, schedule: Q04DX002 (ip), vehicle: saline with Tween-80 89 % of control | endpoint: median survival time, dose: 50.0 mg/kg/injection, schedule: Q04DX002 (ip), vehicle: saline with Tween-80 94 % of control

CCC(=O)OCCNc1cc(C(N)=O)c([N+](=O)[O-])cc1[N+](=O)[O-]
inactive: [1] 105 % of control | [2] 92 % of control | [3] 97 % of control

C[P+](c1ccc(Cl)cc1)(c1ccc(Cl)cc1)c1ccc(Cl)cc1
inactive: endpoint: mean survival time, dose: 6.25 mg/kg/injection, schedule: Q01DX009 (ip), vehicle: saline 119 % of control | endpoint: mean survival time, dose: 12.5 mg/kg/injection, schedule: Q01DX009 (ip), vehicle: saline 107 % of control | endpoint: mean survival time, dose: 25.0 mg/kg/injection, schedule: Q01DX009 (ip), vehicle: saline 109 % of control

O=C(CCCCl)Oc1ccccc1
inactive: [7] 87 % of control | [8] 87 % of control | [9] 103 % of control

CCCCOP(=O)(NCCOC)OCCCC
inactive: [7] 101 % of control | [8] 100 % of control | [9] 103 % of control

COc1ccc(N=C(c2ccccc2)c2ccccc2)cc1
inactive: [4] 95 % of control | endpoint: mean survival time, dose: 100.0 mg/kg/injection, schedule: Q04DX003 (ip), vehicle: saline 89 % of control | [5] 97 % of control | endpoint: mean survival time, dose: 200.0 mg/kg/injection, schedule: Q04DX003 (ip), vehicle: saline 101 % of control | [6] 91 % of control | endpoint: mean survival time, dose: 400.0 mg/kg/injection, schedule: Q04DX003 (ip), vehicle: saline 101 % of control

Oc1ccccc1/C=N/c1nc(-c2ccccc2)cs1
inactive: [1] 86 % of control | [2] 107 % of control | [3] 93 % of control

O=C(OCc1ccccc1)C(Cl)(Cl)Cl
inactive: [7] 107 % of control | [8] 103 % of control | [9] 96 % of control

N#CCCN1CCS(=O)(=O)C1=O
inactive: endpoint: mean survival time, dose: 19.0 mg/kg/injection, schedule: Q01DX001 (ip), vehicle: other 107 % of control | endpoint: mean survival time, dose: 38.0 mg/kg/injection, schedule: Q01DX001 (ip), vehicle: other 115 % of control | endpoint: mean survival time, dose: 75.0 mg/kg/injection, schedule: Q01DX001 (ip), vehicle: other 112 % of control | endpoint: mean survival time, dose: 150.0 mg/kg/injection, schedule: Q01DX001 (ip), vehicle: other 117 % of control and 109 % of control

CC(C)(C)C(=O)CC(O)(C(F)(F)Cl)C(F)(F)Cl
inactive: endpoint: mean survival time, dose: 50.0 mg/kg/injection, schedule: Q01DX009 (ip), vehicle: saline with Tween-80 111 % of control | [4] 116 % of control and 108 % of control | [5] 92 % of control and 95 % of control | [6] 113 % of control

Cc1ccc(S(=O)(=O)N=S2CCCC2)cc1
inactive: endpoint: mean survival time, dose: 100.0 mg/kg/injection, schedule: Q04DX003 (ip), vehicle: other 102 % of control | endpoint: mean survival time, dose: 200.0 mg/kg/injection, schedule: Q04DX003 (ip), vehicle: other 106 % of control | endpoint: mean survival time, dose: 400.0 mg/kg/injection, schedule: Q04DX003 (ip), vehicle: other 104 % of control

CCC(Cc1ccccc1)C1=NC(C)(C)CC(C)O1 (stereo not drawn)
inactive: [1] 97 % of control | [2] 89 % of control
